Usually IC50 stands for the concentration that inhibits the measured activity by half.

One data set relates to mice. The data set can be described thus: mFST alone and in combination with SSRI. The data set is classed as in vivo, mouse. Particulars: Example 12 10 mg/kg p.o.
The next data set addresses T1, human mGlu1 receptor (Homo sapiens, UniProt Q13255).
T1 construct: expressed in transfected cells; host or cells: AV12 cells co-expressing rat EAAT1
The data set can be described thus: FLIPR calcium antagonist assay for mGlu receptor selectivity, mGlu1. The conditions noted are these: inhibition of EC90 glutamate response, read-out: mGlu1 % inhib. @12.5 μM. The data set is classed as cell-based. The source says:
(§1) The relative antagonist potencies of the compounds of the invention for the other human mGlu receptors can be assessed with either a cAMP assay or fluorometric calcium response assay (see for example Fell et al., JPET (in press)). Briefly, individual AV12 cell lines containing the rat EAAT1 glutamate transporter and stably expressing the human mGlu1, 2, 3, 4, 5, 6, & 8 receptors are used for these studies. The mGlu1 and 5 receptors are Gq-coupled, so they naturally signal through phospholipase C, producing a calcium flux response which can be used to measure receptor activation using a Fluorometric Imaging Plate Reader (FLIPR, Molecular Devices). […]
(§2) Intracellular calcium levels are monitored using FLIPR before and after the addition of test compounds and Fluo-3 AM (Invitrogen) or Calcium 4 (Molecular Devices) dye, depending on the cell line. […] The results are analyzed using GraphPad Prism v4.03 to calculate the concentrations of glutamate needed to induce the EC90 (antagonist assay) and EC10 (potentiator assay) responses.
(§3) Compounds are tested at each mGlu receptor in a two-addition FLIPR assay using a 10-point concentration response profile starting at a final concentration of 25 μM for the agonist assay and 12.5 μM for the potentiator and antagonist assays. […] Agonist effects are quantified as percent stimulation induced by compound alone relative to the maximal glutamate response. […]

The next data set concerns the target iGluR5 (Homo sapiens, UniProt P39086). Description: Off-target activity, known assay methods, iGluR5.
A further data set deals with male NIH-Swiss mice. The data set can be described thus: Forced-swim test in mice (mFST). The conditions noted are these: for ED60 (mg/kg): immobility, last 4 min of 6 min; for Maximal Decrease (1 − compound/control) * 100%: immobilization time. The data set is classed as in vivo, mouse.
For data set [1], the system named is wild type, mGlu2(−/−), mGlu3(−/−) and double knockout mice. The data set can be described thus: Wakefulness in mGlu2 and/or mGlu3 receptor deletion mice. It is filed as in vivo, mouse. Particulars: 10 mg/kg, i.p. The text has this:
Additionally, in three separate experiments, mice with single mGlu2(−/−), single mGlu3(−/−), or double mGlu2(−/−) mGlu3(−/−) receptor deletions are studied.

Data set [2] concerns mGlu2+/+ and mGlu2−/− mice. Description: mFST in mGlu2 knock-out mice and +/+ littermates. The conditions noted are these: 10 mg/kg, i.p., 30 min prior.
Description: Briefly, male NIH-Swiss mice (Harlan Sprague-Dawley, Indianapolis, Ind.) weighing between 25-30 g are used. Group housed animals are removed from the vivarium to the testing area in their own cages and allowed to adapt to the new environment for at least 1 hour before testing. […] Mice are placed in a cylinder (diameter: 10 cm; height: 25 cm) filled with 6 cm of water (22-25° C.) for 6 min. The duration of immobility during the last 4 min. of the 6 min. period of the test was scored. A mouse is recorded as immobile when floating motionless or making only those movements necessary to keep its head above water.
In other experiments, mice with receptor deletions (mGlu2 knock-out mice) are studied; these mice are bred by heterozygote×heterozygote breeding and used as littermates for −/− and +/+ mouse comparisons (Taconic Farms).
For data set [3], the target named is 5-HT2B serotonin receptor (Homo sapiens, UniProt P41595). The data set can be described thus: Off-target activity, known assay methods, 5-HT2B.
5-HT2B serotonin receptor, sequence (P41595 whole entry): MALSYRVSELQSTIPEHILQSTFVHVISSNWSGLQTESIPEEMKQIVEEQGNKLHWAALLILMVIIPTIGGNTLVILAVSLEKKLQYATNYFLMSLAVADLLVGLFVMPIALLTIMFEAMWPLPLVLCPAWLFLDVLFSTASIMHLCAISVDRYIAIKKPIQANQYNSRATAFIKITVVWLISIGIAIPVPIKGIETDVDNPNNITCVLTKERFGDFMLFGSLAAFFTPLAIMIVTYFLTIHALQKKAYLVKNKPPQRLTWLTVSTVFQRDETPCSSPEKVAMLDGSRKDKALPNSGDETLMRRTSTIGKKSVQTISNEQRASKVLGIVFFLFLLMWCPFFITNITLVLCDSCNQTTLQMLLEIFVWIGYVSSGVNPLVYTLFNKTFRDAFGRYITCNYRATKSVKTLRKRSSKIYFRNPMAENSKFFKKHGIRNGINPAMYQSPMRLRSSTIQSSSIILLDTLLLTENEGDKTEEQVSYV
The next data set concerns the target T2, human mGlu5 receptor (Homo sapiens, UniProt P41594).
T2 construct: expressed in transfected cells; host or cells: AV12 cells co-expressing rat EAAT1
The data set can be described thus: FLIPR calcium antagonist assay for mGlu receptor selectivity, mGlu5. The data set is classed as cell-based. Particulars: inhibition of EC90 glutamate response, read-out: mGlu5 % inhib. @12.5 μM.
Source text: as §1, §2, §3

Another data set deals with T3, human mGlu8 receptor (Homo sapiens, UniProt O00222).
T3 construct: expressed in transfected cells; host or cells: AV12 cells co-expressing rat EAAT1 and Galpha15
T3 sequence (O00222 34-908): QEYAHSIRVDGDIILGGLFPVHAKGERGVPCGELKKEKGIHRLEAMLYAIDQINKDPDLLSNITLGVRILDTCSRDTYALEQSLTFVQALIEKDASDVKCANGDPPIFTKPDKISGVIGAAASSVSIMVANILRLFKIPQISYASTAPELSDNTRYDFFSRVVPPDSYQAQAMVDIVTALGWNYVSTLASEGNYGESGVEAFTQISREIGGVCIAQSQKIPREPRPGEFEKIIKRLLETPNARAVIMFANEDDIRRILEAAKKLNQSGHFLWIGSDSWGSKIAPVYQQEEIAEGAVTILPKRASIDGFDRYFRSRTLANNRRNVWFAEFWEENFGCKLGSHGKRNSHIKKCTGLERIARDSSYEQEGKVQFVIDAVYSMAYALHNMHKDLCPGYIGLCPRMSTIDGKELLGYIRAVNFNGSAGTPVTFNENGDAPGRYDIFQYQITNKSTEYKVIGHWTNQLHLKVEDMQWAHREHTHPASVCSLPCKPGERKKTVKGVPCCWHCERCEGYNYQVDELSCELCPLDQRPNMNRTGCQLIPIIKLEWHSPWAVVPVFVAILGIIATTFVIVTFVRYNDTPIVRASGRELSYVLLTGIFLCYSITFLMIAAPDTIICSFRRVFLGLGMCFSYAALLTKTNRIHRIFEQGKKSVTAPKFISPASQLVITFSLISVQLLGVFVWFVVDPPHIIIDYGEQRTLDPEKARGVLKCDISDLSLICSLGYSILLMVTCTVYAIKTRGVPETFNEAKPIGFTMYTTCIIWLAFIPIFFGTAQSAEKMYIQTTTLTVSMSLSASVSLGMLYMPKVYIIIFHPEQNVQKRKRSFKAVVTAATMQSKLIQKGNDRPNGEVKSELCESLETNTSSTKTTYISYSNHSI
The data set can be described thus: FLIPR calcium antagonist assay for mGlu receptor selectivity, mGlu8. It is filed as cell-based. The text has this: (§4) The relative antagonist potencies of the compounds of the invention for the other human mGlu receptors can be assessed with either a cAMP assay or fluorometric calcium response assay (see for example Fell et al., JPET (in press)). Briefly, individual AV12 cell lines containing the rat EAAT1 glutamate transporter and stably expressing the human mGlu1, 2, 3, 4, 5, 6, & 8 receptors are used for these studies. The mGlu1 and 5 receptors are Gq-coupled, so they naturally signal through phospholipase C, producing a calcium flux response which can be used to measure receptor activation using a Fluorometric Imaging Plate Reader (FLIPR, Molecular Devices). The cell lines expressing the mGlu2, 3, 4, and 8 receptor are designed to express the Gα15 subunit so that these Gi-coupled receptors will generate a calcium flux response similar to the mGlu1 and 5 receptor expressing cell lines. The mGlu6 receptor is tested in a cAMP format using methods analogous to those developed for mGlu2 and mGlu3 above. These cell lines are maintained as previously described except that amounts of L-glutamine and selection agents (geneticin, hygromycin B, zeocin, and blasticidin) may vary depending on the cell line. Confluent cultures are passaged biweekly.
Intracellular calcium levels are monitored using FLIPR before and after the addition of test compounds and Fluo-3 AM (Invitrogen) or Calcium 4 (Molecular Devices) dye, depending on the cell line. Cells are plated 24 hours prior to assay in a variable concentration of glutamine and a variable density of cells per well, depending on the cell line. The medium is removed and the cells are incubated with 8 μM of dye (50 μl per well) for 90 or 120 minutes (depending on cell line) at 25° C. […] The results are analyzed using GraphPad Prism v4.03 to calculate the concentrations of glutamate needed to induce the EC90 (antagonist assay) and EC10 (potentiator assay) responses.
Compounds are tested at each mGlu receptor in a two-addition FLIPR assay using a 10-point concentration response profile starting at a final concentration of 25 μM for the agonist assay and 12.5 μM for the potentiator and antagonist assays. […] Agonist effects are quantified as percent stimulation induced by compound alone relative to the maximal glutamate response. Antagonist effects are quantified by calculating the percent inhibition of the EC90 glutamate response caused by the compound. Potentiation effects are quantified as percent increase in the presence of an EC10 response in glutamate relative to the ECmax response. All data are calculated as relative IC50 or EC50 values using a four-parameter logistic curve fitting program (ActivityBase v5.3.1.22).

Data set [4] deals with 5-HT2A serotonin receptor (Homo sapiens, UniProt P28223). Description: Off-target activity, known assay methods, 5-HT2A.
The target of another data set is T4, human mGlu3 receptor (Homo sapiens, UniProt Q14832).
T4 construct: expressed in transfected cells; host or cells: AV12 cells co-expressing rat EAAT1
T4 sequence (Q14832 23-879): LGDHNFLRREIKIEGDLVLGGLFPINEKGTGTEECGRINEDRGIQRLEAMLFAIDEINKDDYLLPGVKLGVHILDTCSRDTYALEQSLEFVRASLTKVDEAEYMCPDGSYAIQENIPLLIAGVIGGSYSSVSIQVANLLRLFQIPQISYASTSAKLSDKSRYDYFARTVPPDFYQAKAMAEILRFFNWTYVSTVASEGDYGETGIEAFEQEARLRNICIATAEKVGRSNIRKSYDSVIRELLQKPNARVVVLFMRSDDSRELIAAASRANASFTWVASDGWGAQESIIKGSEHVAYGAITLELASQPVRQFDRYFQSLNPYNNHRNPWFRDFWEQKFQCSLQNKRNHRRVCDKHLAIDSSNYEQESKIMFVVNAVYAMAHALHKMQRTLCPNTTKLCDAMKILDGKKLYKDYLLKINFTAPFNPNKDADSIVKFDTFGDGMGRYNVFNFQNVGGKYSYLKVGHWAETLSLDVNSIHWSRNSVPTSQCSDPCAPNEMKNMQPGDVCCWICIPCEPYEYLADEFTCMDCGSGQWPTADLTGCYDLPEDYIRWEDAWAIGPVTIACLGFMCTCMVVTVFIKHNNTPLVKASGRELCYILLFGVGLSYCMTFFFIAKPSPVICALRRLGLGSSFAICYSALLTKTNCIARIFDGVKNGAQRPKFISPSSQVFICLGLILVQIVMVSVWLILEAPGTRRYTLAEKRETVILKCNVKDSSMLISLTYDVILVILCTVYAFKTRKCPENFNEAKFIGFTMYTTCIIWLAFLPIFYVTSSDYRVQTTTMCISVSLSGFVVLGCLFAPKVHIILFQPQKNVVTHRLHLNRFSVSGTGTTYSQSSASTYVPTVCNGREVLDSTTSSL
Description: mGlu3 receptor cAMP antagonist assay. It is filed as cell-based. The conditions noted are these: reversal of DCG IV (EC90) inhibition of forskolin-stimulated cAMP; relative IC50. The method, then: Antagonist activity is assayed in recombinant AV12 cells stably expressing human mGlu2 or mGlu3 receptors and the rat glutamate transporter EAAT1 (Excitatory Amino Acid Transporter 1). The cell lines are maintained by culturing in DMEM with high glucose and pyridoxine hydrochloride supplemented with 5% dialyzed fetal bovine serum (FBS), 1 mM sodium pyruvate, 1 mM HEPES and 1 mM L-glutamine; geneticin and hygromycin B are used as selection antibiotics.
Reversal of the inhibition of forskolin-stimulated cAMP production by test compounds is measured using homogeneous time resolved fluorescence technology (HTRF; Cisbio cat #62AM4PEB). The medium is removed and the cells are incubated with 100 μl cAMP stimulation buffer (STIM) for 30 minutes at 37° C. […] Cells are incubated at 37° C. for 20 minutes. To measure the cAMP levels, cAMP-d2 conjugate and anti cAMP-cryptate conjugate in lysis buffer are incubated with the treated cells at room temperature for 1 hour (mGlu2) or 1.5 hour (mGlu3). […] The raw data are converted to cAMP amount (pmole/well) using a cAMP standard curve generated for each experiment. Relative IC50 values are calculated from the top-bottom range of the concentration response curve using a four-parameter logistic curve fitting program (ActivityBase v5.3.1.22).

The target in another data set is T5, human mGlu4 receptor (Homo sapiens, UniProt Q14833).
T5 construct: expressed in transfected cells; host or cells: AV12 cells co-expressing rat EAAT1 and Galpha15
T5 sequence (Q14833 33-912): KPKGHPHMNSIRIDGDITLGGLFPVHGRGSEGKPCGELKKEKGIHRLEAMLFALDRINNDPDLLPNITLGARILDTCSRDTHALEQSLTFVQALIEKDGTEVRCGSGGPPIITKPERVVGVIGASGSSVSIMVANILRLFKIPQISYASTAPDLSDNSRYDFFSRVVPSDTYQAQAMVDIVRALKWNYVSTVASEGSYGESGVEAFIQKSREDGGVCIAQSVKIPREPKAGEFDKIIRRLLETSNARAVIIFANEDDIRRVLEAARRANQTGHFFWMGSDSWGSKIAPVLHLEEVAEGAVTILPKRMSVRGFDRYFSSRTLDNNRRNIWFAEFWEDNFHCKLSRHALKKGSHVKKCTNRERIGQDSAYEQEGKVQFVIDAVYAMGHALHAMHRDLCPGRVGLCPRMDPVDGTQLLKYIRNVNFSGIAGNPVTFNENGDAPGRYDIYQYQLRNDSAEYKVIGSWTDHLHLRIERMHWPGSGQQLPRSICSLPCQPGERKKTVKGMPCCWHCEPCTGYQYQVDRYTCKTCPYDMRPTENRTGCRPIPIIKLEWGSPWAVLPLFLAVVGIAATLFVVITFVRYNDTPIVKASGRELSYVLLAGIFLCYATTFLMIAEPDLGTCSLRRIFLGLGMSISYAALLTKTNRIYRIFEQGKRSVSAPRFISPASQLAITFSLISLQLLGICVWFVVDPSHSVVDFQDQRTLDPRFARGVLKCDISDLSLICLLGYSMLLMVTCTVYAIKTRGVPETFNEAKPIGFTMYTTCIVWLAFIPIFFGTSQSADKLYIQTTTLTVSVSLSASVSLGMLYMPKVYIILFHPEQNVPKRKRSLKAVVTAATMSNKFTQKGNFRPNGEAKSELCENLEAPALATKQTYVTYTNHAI
The data set can be described thus: FLIPR calcium antagonist assay for mGlu receptor selectivity, mGlu4. It is filed as cell-based. Particulars: inhibition of EC90 glutamate response, read-out: mGlu4 % inhib. @12.5 μM.
Source text: as §1, §2, §3

In a further data set the target is T6, M2 muscarinic receptor (Homo sapiens, UniProt P08172).
T6 sequence (P08172 1-466): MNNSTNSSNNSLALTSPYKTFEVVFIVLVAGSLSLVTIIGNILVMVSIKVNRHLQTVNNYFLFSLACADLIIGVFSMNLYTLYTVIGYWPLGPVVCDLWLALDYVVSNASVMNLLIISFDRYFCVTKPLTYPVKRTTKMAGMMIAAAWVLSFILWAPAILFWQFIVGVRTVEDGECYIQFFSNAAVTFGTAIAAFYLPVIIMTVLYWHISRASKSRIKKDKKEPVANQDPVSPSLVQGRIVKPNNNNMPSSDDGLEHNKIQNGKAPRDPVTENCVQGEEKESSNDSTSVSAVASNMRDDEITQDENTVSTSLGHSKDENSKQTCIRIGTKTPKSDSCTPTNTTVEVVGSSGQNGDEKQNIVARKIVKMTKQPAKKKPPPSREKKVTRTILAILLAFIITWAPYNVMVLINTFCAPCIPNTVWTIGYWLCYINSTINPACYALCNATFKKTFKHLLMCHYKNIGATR
The data set can be described thus: Off-target activity, known assay methods, M2.

A further data set concerns the target hERG channel (Homo sapiens, UniProt Q12809). Description: Off-target activity, known assay methods, hERG.
In the next data set the target is T7, human mGlu6 receptor (Homo sapiens, UniProt O15303).
T7 construct: expressed in transfected cells; host or cells: AV12 cells co-expressing rat EAAT1
T7 sequence (O15303 25-877): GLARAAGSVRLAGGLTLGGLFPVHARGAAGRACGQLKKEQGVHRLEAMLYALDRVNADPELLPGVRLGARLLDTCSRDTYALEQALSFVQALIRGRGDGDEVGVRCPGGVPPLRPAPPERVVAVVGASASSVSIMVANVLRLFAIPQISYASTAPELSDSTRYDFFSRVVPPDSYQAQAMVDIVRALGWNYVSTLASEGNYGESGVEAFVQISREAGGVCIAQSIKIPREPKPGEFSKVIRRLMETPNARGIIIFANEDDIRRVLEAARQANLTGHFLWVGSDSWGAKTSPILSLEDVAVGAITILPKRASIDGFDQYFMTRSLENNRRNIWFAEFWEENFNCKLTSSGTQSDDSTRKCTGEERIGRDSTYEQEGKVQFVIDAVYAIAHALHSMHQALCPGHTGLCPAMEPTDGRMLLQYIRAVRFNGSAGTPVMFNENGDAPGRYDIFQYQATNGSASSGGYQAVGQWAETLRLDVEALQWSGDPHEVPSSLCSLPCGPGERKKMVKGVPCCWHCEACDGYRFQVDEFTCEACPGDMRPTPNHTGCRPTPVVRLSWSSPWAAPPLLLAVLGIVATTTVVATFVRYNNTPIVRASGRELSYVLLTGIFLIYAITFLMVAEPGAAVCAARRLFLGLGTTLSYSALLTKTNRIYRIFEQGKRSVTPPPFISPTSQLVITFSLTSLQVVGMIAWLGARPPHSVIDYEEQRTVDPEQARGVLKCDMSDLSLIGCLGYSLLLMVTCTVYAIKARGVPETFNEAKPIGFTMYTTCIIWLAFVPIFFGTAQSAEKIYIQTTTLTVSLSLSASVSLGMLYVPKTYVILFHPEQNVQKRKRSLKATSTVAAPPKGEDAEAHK
Description: mGlu6 cAMP antagonist assay (reference agonist L-AP4). It is filed as cell-based. The conditions noted are these: cAMP format.
Source text: as §4, with “These cell lines are maintained as previously described except that amounts of L-glutamine and selection agents (geneticin, hygromycin B, zeocin, and blasticidin) may vary depending on the cell line. Confluent cultures are passaged biweekly.” left out
Antagonist activity in mGlu6 cells is measured using cAMP in a method analogous to that described above for mGlu2 and mGlu3 activity, except that the reference agonist was L-AP4 (Tocris). […] Relative IC50 and EC50 values are calculated from the top-bottom range of the concentration response curve using a four-parameter logistic curve fitting program (ActivityBase v5.3.1.22).

The mark [5] stands for this setting: citalopram experiment, citalopram 1 mg/kg i.p.
The mark [6] stands for this setting: fluoxetine experiment, fluoxetine 10 mg/kg i.p.

hERG channel, sequence (Q12809 whole entry): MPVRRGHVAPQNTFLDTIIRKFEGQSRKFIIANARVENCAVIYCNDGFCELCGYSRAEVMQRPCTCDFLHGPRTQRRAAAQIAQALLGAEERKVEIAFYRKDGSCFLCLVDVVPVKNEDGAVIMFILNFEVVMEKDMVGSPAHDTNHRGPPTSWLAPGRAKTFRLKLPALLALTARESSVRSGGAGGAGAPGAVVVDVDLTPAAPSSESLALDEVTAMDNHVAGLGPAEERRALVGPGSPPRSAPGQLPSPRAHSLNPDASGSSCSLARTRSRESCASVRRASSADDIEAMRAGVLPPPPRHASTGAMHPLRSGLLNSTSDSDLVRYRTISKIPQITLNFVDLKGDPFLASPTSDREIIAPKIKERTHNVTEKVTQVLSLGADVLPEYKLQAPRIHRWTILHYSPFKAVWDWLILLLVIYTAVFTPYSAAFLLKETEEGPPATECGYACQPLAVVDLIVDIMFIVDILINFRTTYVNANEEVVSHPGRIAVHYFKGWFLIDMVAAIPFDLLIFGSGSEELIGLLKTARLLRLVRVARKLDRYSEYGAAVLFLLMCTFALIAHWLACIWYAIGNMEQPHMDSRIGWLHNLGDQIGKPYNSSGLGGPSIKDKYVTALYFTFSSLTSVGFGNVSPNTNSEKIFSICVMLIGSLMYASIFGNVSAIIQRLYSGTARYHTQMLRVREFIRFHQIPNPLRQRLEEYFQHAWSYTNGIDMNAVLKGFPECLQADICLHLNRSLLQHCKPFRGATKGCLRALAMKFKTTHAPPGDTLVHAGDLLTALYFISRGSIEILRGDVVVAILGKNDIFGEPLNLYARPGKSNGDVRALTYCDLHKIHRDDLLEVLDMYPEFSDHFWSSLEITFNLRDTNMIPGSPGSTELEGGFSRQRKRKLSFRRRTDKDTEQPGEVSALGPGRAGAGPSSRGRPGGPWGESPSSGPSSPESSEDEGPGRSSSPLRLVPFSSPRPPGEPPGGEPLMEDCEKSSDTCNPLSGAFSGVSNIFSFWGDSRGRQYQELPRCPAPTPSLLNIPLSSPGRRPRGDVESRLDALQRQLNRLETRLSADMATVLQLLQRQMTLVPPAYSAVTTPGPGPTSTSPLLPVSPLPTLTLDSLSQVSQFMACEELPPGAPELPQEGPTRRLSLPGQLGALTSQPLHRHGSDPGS

Turning to `CN(C)CCCC1(c2ccc(F)cc2)OCc2cc(C#N)ccc21` (stereo not shown) [Citalopram, citalopram, reference compound], in the data set on mice (setting [5]), the “Immobilization Time” value worked out at 102 s and the “Maximal Decrease (1 − compound/control) * 100%” value is 42.1%.

Take `Cl.N[C@]1(C(=O)O)[C@@H]2[C@@H](C(=O)O)[C@@H]2[C@H](O)[C@H]1CSc1ccc(F)c(F)c1` [Example 1, (1S,2R,3S,4S,5R,6R)-2-Amino-3-{[(3,4-difluorophenyl)sulfanyl]methyl}-4-hydroxybicyclo[3.1.0]hexane-2,6-dicarboxylic acid hydrochloride]: the inhibition at 12.5 µM is 6.3% on human mGlu1 receptor; -2% on human mGlu5 receptor; 47% on human mGlu8 receptor (12.5 μM, inhibition of EC90 glutamate response, read-out: mGlu8 % inhib. @12.5 μM); 17.9% at human mGlu4 receptor. Besides, the “activity at iGluR5” value on iGluR5 is on record as “no appreciable activity”. Moreover, the “ED60 (mg/kg)” value with male NIH-Swiss mice (i.p.) was 8.0 (i.p.) mg/kg. Further, the “Maximal Decrease (1 − compound/control) * 100%” value in the data set with male NIH-Swiss mice (i.p.) is 36.1%. Besides, the “wakefulness in double knockout mGlu2(−/−) mGlu3(−/−) mice” value in [1] (double knockout) was “not significantly increase wakefulness”. Further, the “wakefulness in single knockout mGlu2(−/−) mice” value in data set [1] (mGlu2(−/−), though at a reduced level) was “significantly increase wakefulness”. For the same molecule, the “wakefulness in single knockout mGlu3(−/−) mice” value in [1] (mGlu3(−/−), though at a reduced level) is “significantly increase wakefulness”. The “wakefulness in wild type mice” value in data set [1] (wild type) is reported as “significantly increase wakefulness”. Besides, the “immobility time in mGlu2+/+ mice” value in data set [2] was “significantly decrease immobility time”. The “activity at serotonin receptor 5-HT2B” value in [3] is given as “no appreciable activity”. Moreover, the IC50 came to 4970 nM at human mGlu8 receptor (FLIPR antagonist, in brackets under % inhib.); 6.2 ± 2.2 nM at human mGlu3 receptor; 1720 nM at human mGlu6 receptor. The “activity at serotonin receptor 5-HT2A” value in [4] is “no appreciable activity”. Moreover, the “activity at muscarinic receptor M2” value at M2 muscarinic receptor was “no appreciable activity”. Moreover, at hERG channel, the “activity at the hERG channel” value is given as “no appreciable activity”.

In the case of `CC(C)OC(=O)OCOC(=O)[C@H]1[C@@H]2[C@H](O)[C@@H](CSc3ccc(F)c(Cl)c3)[C@@](N)(C(=O)OCOC(=O)OC(C)C)[C@H]12.Cl` [Example 22, Bis({[(1-methylethoxy)carbonyl]oxy}methyl) (1S,2R,3S,4S,5R,6R)-2-amino-3-{[(3-chloro-4-fluorophenyl)sulfanyl]methyl}-4-hydroxybicyclo[3.1.0]hexane-2,6-dicarboxylate hydrochloride], in the data set with male NIH-Swiss mice (p.o.), the “ED60 (mg/kg)” value was 20.5 (p.o.) mg/kg and the “Maximal Decrease (1 − compound/control) * 100%” value turned out to be 50.1%.

With `CNCCC(Oc1ccc(C(F)(F)F)cc1)c1ccccc1` (stereo not shown) [Fluoxetine, fluoxetine, reference compound], in the data set on mice (setting [6]), the “Immobilization Time” value amounted to 118 s and the “Maximal Decrease (1 − compound/control) * 100%” value is given as 31.5%.

The values are drawn from US8629169B2, “4-substituted-3-phenylsulfanylmethyl-bicyclo[3.1.0]hexane compounds as mGluR 2/3 antagonists” (Eli Lilly and Company, priority 2010, dated 2014).
